In patent US20100210633A1, “CARBOXAMIDE COMPOUNDS AND THEIR USE” (EPIX Delaware, Inc., priority 2006, published 2010):
pIC50: −log10 of the molar value.

Biological target: CCR2 (Homo sapiens, UniProt P41597)
Assay: calcium flux assay
Type: cell-based
Conditions: read-out: IC50 Ca++ flux
Source text: The capacity of the compounds of the invention to antagonize CCR2 function can be determined using a suitable screen (e.g., high throughput assay). For example, an agent can be tested in an extracellular acidification assay, calcium flux assay, ligand binding assay or chemotaxis assay (see, for example, Hesselgesser et al., J Biol. Chem. 273(25):15687-15692 (1998), WO 00/05265 and WO 98/02151).

Chain of CCR2 (P41597 whole entry): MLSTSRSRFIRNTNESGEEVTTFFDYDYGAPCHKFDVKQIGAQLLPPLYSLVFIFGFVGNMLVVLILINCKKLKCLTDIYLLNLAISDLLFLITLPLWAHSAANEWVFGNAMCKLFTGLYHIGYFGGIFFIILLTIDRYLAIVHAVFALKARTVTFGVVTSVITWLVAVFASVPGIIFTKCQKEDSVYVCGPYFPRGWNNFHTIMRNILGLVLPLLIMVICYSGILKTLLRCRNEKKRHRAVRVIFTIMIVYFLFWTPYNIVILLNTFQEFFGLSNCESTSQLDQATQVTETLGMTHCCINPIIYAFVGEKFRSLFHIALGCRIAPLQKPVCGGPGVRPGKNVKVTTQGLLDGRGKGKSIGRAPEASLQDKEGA

O=C(NCc1cc(C(F)(F)F)cc(C(F)(F)F)c1)C1(Cc2ccncc2)CCN(CC2CCOCC2)CC1 [Example 13, N-(3,5-Bis(trifluoromethyl)benzyl)-4-(pyridin-4-ylmethyl)-1-((tetrahydro-2H-pyran-4-yl)methyl)piperidine-4-carboxamide]
pIC50: < 6.00

O=C(NCc1cc(C(F)(F)F)cc(C(F)(F)F)c1)C1(CC2CCOCC2)CCN(Cc2ccc3c(c2)OCO3)CC1 [Example 27, 1-(Benzo[d][1,3]dioxol-5-ylmethyl)-N-(3,5-bis(trifluoromethyl)benzyl)-4-((tetrahydro-2H-pyran-4-yl)methyl)piperidine-4-carboxamide]
pIC50: < 6.00

CC(C)CC1(C(=O)NCc2cc(C(F)(F)F)cc(C(F)(F)F)c2)CCN(CC(=O)N2CCS(=O)(=O)CC2)CC1 [Example 53, N-(3,5-Bis(trifluoromethyl)benzyl)-4-isobutyl-1-(2-oxo-2-sulphonylmorpholinoethyl)piperidine-4-carboxamide]
pIC50: < 6.00

COc1ccc(CN2CCC(CC3CC3)(C(=O)NCc3cc(C(F)(F)F)cc(C(F)(F)F)c3)C2)cc1F (stereo not drawn) [Example 80, N-(3,5-Bis(trifluoromethyl)benzyl)-3-(cyclopropylmethyl)-1-(3-fluoro-4-methoxybenzyl)pyrrolidine-3-carboxamide]
pIC50: 6.00 to 6.70

CCS(=O)(=O)NC(=O)c1cc(CN2CCC(CC3CC3)(C(=O)NCc3cc(C(F)(F)F)cc(C(F)(F)F)c3)CC2)ccc1F [Example 64, N-(3,5-Bis(trifluoromethyl)benzyl)-4-(cyclopropylmethyl)-1-(3-(ethylsulfonylcarbamoyl)-4-fluorobenzyl)piperidine-4-carboxamide]
pIC50: 6.00 to 6.70

CC(C)(CN1CCC(CC2CC2)(C(=O)NCc2cc(C(F)(F)F)cc(C(F)(F)F)c2)CC1)N1CCOCC1 [Example 69, N-(3,5-Bis(trifluoromethyl)benzyl)-4-(cyclopropylmethyl)-1-(2-methyl-2-morpholinopropyl)piperidine-4-carboxamide]
pIC50: 6.00 to 6.70

COc1ccc(CN2CCC(CC(C)C)(C(=O)NCc3cc(C(F)(F)F)cc(C(F)(F)F)c3)CC2)cc1O [Example 30, N-(3,5-Bis(trifluoromethyl)benzyl)-1-(3-hydroxy-4-methoxybenzyl)-4-isobutylpiperidine-4-carboxamide]
pIC50: > 6.70

CC(C)CC1(C(=O)NCc2cc(C(F)(F)F)cc(C(F)(F)F)c2)CCN(C2CCC(O)(c3ccc4c(c3)OCO4)CC2)CC1 (stereo not drawn) [Example 26, 1-(4-(Benzo[d][1,3]dioxol-5-yl)-4-hydroxycyclohexyl)-N-(3,5-bis(trifluoromethyl)benzyl)-4-isobutylpiperidine-4-carboxamide]
pIC50: 6.00 to 6.70

CC(C)CC1(C(=O)N[C@@H](C)c2cc(C(F)(F)F)cc(C(F)(F)F)c2)CCN(Cc2ccc3c(c2)OCO3)CC1 [Example 45, (S)-1-(benzo[d][1,3]dioxol-5-ylmethyl)-N-(1-(3,5-bis(trifluoromethyl)phenyl)ethyl)-4-isobutylpiperidine-4-carboxamide]
pIC50: < 6.00

N#Cc1ccc(Oc2ccc(CN3CCC(CC4CC4)(C(=O)NCc4cc(C(F)(F)F)cc(C(F)(F)F)c4)CC3)cn2)cc1 [Example 67, N-(3,5-Bis(trifluoromethyl)benzyl)-1-((6-(4-cyanophenoxy)pyridin-3-yl)methyl)-4-(cyclopropylmethyl)piperidine-4-carboxamide]
pIC50: 6.00 to 6.70

CC(C)CC1(C(=O)N[C@H](C)c2cc(C(F)(F)F)cc(C(F)(F)F)c2)CCN(Cc2ccc3c(c2)OCO3)CC1 [Example 44, (R)-1-(Benzo[d][1,3]dioxol-5-ylmethyl)-N-(1-(3,5-bis(trifluoromethyl)phenyl)ethyl)-4-isobutylpiperidine-4-carboxamide]
pIC50: < 6.00

COCC1(C(=O)NCc2cc(C(F)(F)F)cc(C(F)(F)F)c2)CCN(CC2CCOCC2)CC1 [Example 11, N-(3,5-Bis(trifluoromethyl)benzyl)-1-((tetrahydro-2H-pyran-4-yl)methyl)-4-(methoxymethyl)piperidine-4-carboxamide]
pIC50: < 6.00

O=C(NCCN1CCCC1)c1cc(CN2CCC(CC3CC3)(C(=O)NCc3cc(C(F)(F)F)cc(C(F)(F)F)c3)CC2)ccc1F [Example 59, N-(3,5-Bis(trifluoromethyl)benzyl)-4-(cyclopropylmethyl)-1-(4-fluoro-3-(2-(pyrrolidin-1-yl)ethylcarbamoyl)benzyl)piperidine-4-carboxamide]
pIC50: < 6.00

CC(C)CC1(C(=O)NCc2cc(C(F)(F)F)cc(C(F)(F)F)c2)CCN(c2ccccn2)CC1 [Example 19, N-(3,5-Bis(trifluoromethyl)benzyl)-4-isobutyl-1-(pyridin-2-yl)piperidine-4-carboxamide]
pIC50: < 6.00

O=C(NCc1cc(C(F)(F)F)cc(C(F)(F)F)c1)C1(CC2CC2)CCN(Cc2ccc3c(c2)OC(F)(F)O3)CC1 [Example 50, N-(3,5-Bis(trifluoromethyl)benzyl)-4-(cyclopropylmethyl)-1-((2,2-difluorobenzo[d][1,3]dioxol-5-yl)methyl)piperidine-4-carboxamide]
pIC50: > 6.70

CC(C)CC1(C(=O)NCc2cc(C(F)(F)F)cc(C(F)(F)F)c2)CCN(Cc2ccc3c(c2)OCO3)CC1 [Example 21, 1-(Benzo[d][1,3]dioxol-5-ylmethyl)-N-(3,5-bis(trifluoromethyl)benzyl)-4-isobutylpiperidine-4-carboxamide]
pIC50: 6.00 to 6.70

O=C(O)c1cc(CN2CCC(CC3CC3)(C(=O)NCc3cc(C(F)(F)F)cc(C(F)(F)F)c3)C2)ccc1F (stereo not drawn) [Example 79, 5-((3-(3,5-Bis(trifluoromethyl)benzylcarbamoyl)-3-(cyclopropylmethyl)pyrrolidin-1-yl)methyl)-2-fluorobenzoic acid]
pIC50: 6.00 to 6.70

CC(C)CC1(C(=O)N2CCN(c3cccc(C(F)(F)F)c3)CC2)CCN(Cc2ccc3c(c2)OCO3)CC1 [Example 40, (1-(Benzo[d][1,3]dioxol-5-ylmethyl)-4-isobutylpiperidin-4-yl)(4-(3-(trifluoromethyl)phenyl)piperazin-1-yl)methanone]
pIC50: < 6.00

CC(C)CC1(C(=O)NCc2cc(C(F)(F)F)cc(C(F)(F)F)c2)CCN(CC2CCOCC2)CC1 [Example 12, N-(3,5-Bis(trifluoromethyl)benzyl)-4-isobutyl-1-((tetrahydro-2H-pyran-4-yl)methyl)piperidine-4-carboxamide]
pIC50: < 6.00

O=C(NCc1cc(C(F)(F)F)cc(C(F)(F)F)c1)C1(CC2CC2)CCN(CC2CCOCC2)C1 (stereo not drawn) [Example 81, N-(3,5-Bis(trifluoromethyl)benzyl)-3-(cyclopropylmethyl)-1-((tetrahydro-2H-pyran-4-yl)methyl)pyrrolidine-3-carboxamide]
pIC50: > 6.70

CC(C)CC1(C(=O)NCc2cc(C(F)(F)F)cc(C(F)(F)F)c2)CCN(CCN2CCCCC2)CC1 [Example 18, N-(3,5-Bis(trifluoromethyl)benzyl)-4-isobutyl-1-(2-(piperidin-1-yl)ethyl)piperidine-4-carboxamide]
pIC50: < 6.00
